Structures can show the parent of a compound that is named as a salt. Where two headings read alike, the source gives them in different places.
Experiments:
[1] = Cytotoxicity on mammalian cells (CCK-8), NIH3T3; format: cell-based; conditions: mouse, NIH3T3 cells, 3T3 cell line
Protocol: (§1) Cytotoxicity test of bacterial sensitizers on mammalian cells. Cell viability was assessed by using Cell Counting Kit-8 (CCK-8, Dojindo, Japan). HEK293 or NIH3T3 cells were seeded in a 96-well plate one day before the experiment to reach 80% confluency. Cells were then incubated with various concentration of bacterial sensitizers at 37° C. with 5% CO2 for 24 h, then 10 μL of CCK-8 solution was added to each well, and the plate was incubated for an additional at 37° C. 2 h with 5% CO2. The optical density at 450 nm was recorded by plate reader; and the results were calculated as a percentage of viability compared with the untreated control.

HEK293 cells = experiment: Cytotoxicity on mammalian cells (CCK-8), HEK293; format: cell-based; conditions: Homo sapiens
Protocol: as §1

[2] = Cytotoxicity on mammalian cells (CCK-8), HEK293; format: cell-based; conditions: human, HEK293 cells; HEK293 cell line; 24 h
Protocol: as §1

B. subtilis = experiment: MIC determination and sensitization fold on B. subtilis; format: cell-based; conditions: B. subtilis; for Sensitization fold: erythromycin; for MIC: Bacillus subtilis, 24 h, compound alone, read-out: MIC
MRSA (ATCC 33592) = experiment: MIC determination and sensitization fold on MRSA; format: cell-based, methicillin-resistant Staphylococcus aureus; conditions: Staphylococcus aureus, 24 h
Protocol: Bacteria strains: E. coli (ATCC 25922), A. baumannii (ATCC 17978), K. pneumoniae (43816), S. maltophilia (ATCC 31559), S. typhimurium (ATCC 14028), C. werkmanii (ATCC 51114), S. aureus (ATCC 12600) and methicillin-resistant Staphylococcus aureus (MRSA, ATCC 33592) strains were purchased from ATCC. NR698 was provided.
(§2) Bacteria culture and MICs determination: Gram-negative bacteria were cultured in Mueller Hinton II cation-adjusted broth. Gram-positive bacteria were cultured in LB broth. Mycobacterium smegmatis was cultured in Middlebrook 7H9 Broth. MICs of antibiotics itself were determined by performing two-fold serial dilutions of antibiotics. MICs of antibiotics in the presence of bacterial sensitizers were determined by performing two-fold serial dilutions of antibiotics with or without a constant concentration of bacterial sensitizers. The MICs tests were performed on 96-well plates with a final volume of 200 μl Mueller Hinton II cation-adjusted broth in each well. Each well was inoculated with 5×10^5 CFU/ml bacteria and was incubated for 24 h at 37° C. with continuous shaking of 200 rpm. The bacterial density was then determined by OD600. Bacterial growth %=OD600 of antibiotic treatment group/OD600 of antibiotic non-treatment group. MICs was determined as the concentrations that inhibit more than 90% of bacteria growth.
(§3) Sensitization fold determination and FIC index calculations: Sensitization fold=MIC of antibiotic only/MIC of antibiotic with bacterial sensitizer. […] Since the MICs were determined by performing two-fold serial dilutions of antibiotic, so the sensitization fold can is the times of 2.
(§4) Bacteria strains (as indicated in Table 5B) were cultured with rifampicin at various concentrations in the presence or absence of 10 μM of the indicated compound for 20 h at 37° C. The MIC, sensitization, cytotoxicity, and MIC on mycobacteria were tested according to methods described herein. […] The sensitization activities of compounds on MRSA were tested using rifampicin. The sensitization activities of compounds on E. coli were tested using rifampicin.

E. coli (ATCC 25922) = experiment: MIC determination, sensitization fold and FIC index on E. coli; format: cell-based; conditions: for MIC: Escherichia coli, ATCC25922, 24 h
Protocol: as §2, §3
FIC index between compound a and b was calculated according to the formula below: […]
FIC≤0.5: Synergy; FIC between 0.5 and 1: Additive; FIC between 1 and […]: no interaction; FIC >4: antagonism.
as §4

[3] = Cytotoxicity in H9c2 cells (CCK-8); format: cell-based; conditions: rat, H9c2 cells; for CC50 at 24 h: H9c2 cell line
Protocol: The cytotoxicity in H9c2 (ATCC®CRL-1446™) cells was also determined. The H9c2 cells were maintained in DMEM (Dulbecco's Modified Eagle's Medium) supplemented with 10% fetal bovine serum (MidSci; S01520HI) and 1% penicillin-streptomycin (Sigma-Aldrich; P4333) at 37° C. with 5% CO2. The H9c2 cells were seeded in 96-well plate one day before the experiment. Different concentrations of di-amidine compounds were added into the H9c2 cells. The cells were then incubated with the compounds for 24 hours at 37° C. with 5% CO2. The cell viability was tested by the CCK-8. Specifically, after 24 hour incubation, 10 μL CCK-8 was added to each well. After 3 hours incubation at 37° C., the absorbance at 450 nm was recorded by a plate reader.

E. coli = experiment: Sensitization of E. coli (sensitization fold), Example 2; format: cell-based
Protocol: The sensitization fold of select compounds of the present invention was determined. E. coli bacteria were cultured in nutrient broth at 37° C. overnight prior to treatment. […] Bacterial density was measured based on OD600.

M. smegmatis = experiment: MIC on mycobacteria; format: cell-based, Mycobacterium smegmatis; conditions: Mycolicibacterium smegmatis, read-out: MIC on mycobacteria
[4] = 10 μM compound, rifampicin as the antibiotic (Table 6)
[5] = E. coli, rifampicin, compound at 10 μM
[6] = MRSA, compound alone, read-out: MIC
[7] = E. coli, compound alone, read-out: MIC

CC(C)(C)c1cc(COc2ccc(C(=N)N)cc2F)cc(COc2ccc(C(=N)N)cc2F)c1 [MD-115, 4,4′-(((5-(tert-butyl)-1,3-phenylene)bis(methylene))bis(oxy))bis(3-fluorobenzimidamide) dihydrochloride]
CC50 at 24 h [1]: 25 to 50 µM
IC50 (HEK293 cells; HEK293): 25 to 50 µM
CC50 at 24 h [2]: 25 to 50 µM
Sensitization fold (B. subtilis; compound at 6 μM): 8-fold at 6 μM
MIC (MRSA (ATCC 33592)): 25 µM
Sensitization fold (E. coli (ATCC 25922); [4]): 256 fold
Sensitization fold (E. coli (ATCC 25922); [5]): 256-fold at 10 μM
CC50 at 24 h [3]: 25 µM

N=C(N)c1ccc(-c2ccc(-c3ccc(C(=N)N)cc3)[se]2)cc1 [Compound R]
Sensitization ability: fold sensitization of E. coli towards rifampicin (E. coli; compound at 25 μM): At 25 μM, sensitize E. coli towards rifampicin for 32-fold;
IC50 at 24 h [3]: > 100 µM

N=C(N)c1ccc(-c2ccc(-c3ccc(-c4ccc(C(=N)N)o4)o3)o2)cc1 [Compound M]
Sensitization ability: fold sensitization of E. coli towards rifampicin (E. coli; compound at 15 μM): 32 fold
Sensitization ability: fold sensitization of E. coli towards rifampicin (E. coli; compound at 25 μM): 516 fold
IC50 at 24 h ([3]; H9c2 cells (ATCC CRL-1446)): 100 µM

N=C(N)Nc1ccc(-c2ccc(-c3ccc(NC(=N)N)cc3Cl)o2)c(Cl)c1 [Compound C]
Sensitization ability: fold sensitization of E. coli towards rifampicin (E. coli; compound at 4 μM): At 4 μM, sensitize E. coli towards rifampicin for 516-fold;
IC50 at 24 h ([3]; H9c2 cells (ATCC CRL-1446)): 50 µM

CC(C)(C)c1cc(COc2ccc(C(=N)N)cc2)cc(COc2ccc(C(=N)N)cc2)c1 [MD-105, 4,4′-(((5-(tert-butyl)-1,3-phenylene)bis(methylene))bis(oxy))dibenzimidamide dihydrochloride]
MIC (M. smegmatis): 6 µM
IC50 (HEK293 cells; HEK293): 25 to 50 µM
Sensitization fold (E. coli (ATCC 25922); [4]): 16 fold
Sensitization fold (E. coli (ATCC 25922); [5]): 16-fold at 10 μM.
MIC (E. coli (ATCC 25922)): 25 µM
CC50 at 24 h [3]: 25 µM

Cc1cc(CSc2ccc(C(=N)N)cc2)cc(CSc2ccc(C(=N)N)cc2)c1 [MD-117, 4,4′-(((5-methyl-1,3-phenylene)bis(methylene))bis(sulfanediyl)) dibenzimidamide dihydrochloride]
CC50 at 24 h [1]: 25 to 50 µM
IC50 (HEK293 cells; HEK293 cells (Table 6), read-out: IC50): 25 to 50 µM
CC50 at 24 h [2]: 25 to 50 µM
Sensitization fold (B. subtilis; compound at 3 μM): 8-fold at 3 μM.
Sensitization fold (B. subtilis; compound at 6 μM): 32-fold at 6 μM
MIC (B. subtilis): 25 µM
MIC (MRSA (ATCC 33592); [6]): 12.5 µM
Sensitization fold (E. coli (ATCC 25922); [4]): 32 fold
Sensitization fold (E. coli (ATCC 25922); E. coli, rifampicin, compound at 6 μM): 8-fold at 6 μM.
Sensitization fold (E. coli (ATCC 25922); E. coli, rifampicin, compound at 12.5 μM): 32-fold at 12.5 μM
MIC (E. coli (ATCC 25922); [7]): 50 µM

Cc1cc(COc2ccc(CN)cc2)cc(COc2ccc(CN)cc2)c1 [MD-106, ((((S-methyl-1,3-phenylene)bis(methylene))bis(oxy))bis(4,1-phenylene))dimethanamine dihydrochloride]
CC50 at 24 h [1]: 25 µM
CC50 at 24 h [2]: 25 µM
Sensitization fold (B. subtilis; compound at 4 μM): 4-fold at 4 μM
Sensitization fold (B. subtilis; compound at 12 μM): 16-fold at 12 μM
MIC (B. subtilis): > 50 µM
MIC (MRSA (ATCC 33592); [6]): > 50 µM
Sensitization fold (E. coli (ATCC 25922); [4]): 1 fold
Sensitization fold (E. coli (ATCC 25922); E. coli, rifampicin, compound at 25 μM): 4-fold at 25 μM
MIC (E. coli (ATCC 25922); [7]): 100 µM
sensitization activity (E. coli (ATCC 25922); rifampicin, compound at up to 10 μM): no sensitization activity
CC50 at 24 h [3]: 12.5 µM

N=C(N)c1ccc(-c2ccc(-c3ccc(-c4ccc(C(=N)N)s4)o3)o2)s1 [Compound Q]
Sensitization ability: fold sensitization of E. coli towards rifampicin (E. coli; compound at 25 μM): At 25 μM, sensitize E. coli towards rifampicin for 32-fold;
IC50 at 24 h ([3]; H9c2 cells (ATCC CRL-1446)): 50 µM

N=C(N)c1ccc(-c2ccc3[nH]cc(-c4nc5ccc(C(=N)N)cc5[nH]4)c3c2)cc1 [Compound U, 3-(5-Amidinobenzimidazol-2-yl)-5-(4-amidinophenyl)indole acetate salt]
Sensitization ability: fold sensitization of E. coli towards rifampicin (E. coli; compound at 10 μM): At 10 μM, sensitize E. coli towards rifampicin for 32-fold;
IC50 at 24 h ([3]; H9c2 cells (ATCC CRL-1446)): 100 µM

Reference: patent US20230105108A1, “COMPOUNDS FOR THE TREATMENT OF BACTERIAL INFECTIONS AND POTENTIATION OF ANTIBIOTICS” (GEORGIA STATE UNIVERSITY RESEARCH FOUNDATION, INC., priority 2019, published 2023)
